Assay in all cases: Species specificity: recombinant tagged GSK-3 orthologue kinase assay
In assay [1] the target is T1, GSK-3 (Plasmodium knowlesi, UniProt A0A679KU36).
T1 sequence (A0A679KU36 1-473): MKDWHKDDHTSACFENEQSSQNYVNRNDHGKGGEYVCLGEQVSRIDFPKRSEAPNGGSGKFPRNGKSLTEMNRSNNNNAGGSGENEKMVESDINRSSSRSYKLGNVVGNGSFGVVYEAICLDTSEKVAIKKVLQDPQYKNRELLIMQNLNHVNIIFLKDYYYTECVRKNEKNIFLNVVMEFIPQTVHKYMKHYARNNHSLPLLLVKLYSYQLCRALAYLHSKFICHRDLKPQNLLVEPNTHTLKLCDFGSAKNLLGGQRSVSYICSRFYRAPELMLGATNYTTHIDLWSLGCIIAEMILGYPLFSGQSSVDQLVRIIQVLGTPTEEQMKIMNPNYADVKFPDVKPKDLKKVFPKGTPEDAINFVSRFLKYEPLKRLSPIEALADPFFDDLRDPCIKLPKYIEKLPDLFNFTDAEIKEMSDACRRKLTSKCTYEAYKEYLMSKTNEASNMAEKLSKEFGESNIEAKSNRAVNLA
Type of assay: biochemical. The conditions noted are these: read-out: IC50 Plasmodium knowlesi; calculated from dose-response curves.

For assay [2], the target named is T2, GSK-3 (Toxoplasma gondii, UniProt O44002).
T2 sequence (O44002 1-394): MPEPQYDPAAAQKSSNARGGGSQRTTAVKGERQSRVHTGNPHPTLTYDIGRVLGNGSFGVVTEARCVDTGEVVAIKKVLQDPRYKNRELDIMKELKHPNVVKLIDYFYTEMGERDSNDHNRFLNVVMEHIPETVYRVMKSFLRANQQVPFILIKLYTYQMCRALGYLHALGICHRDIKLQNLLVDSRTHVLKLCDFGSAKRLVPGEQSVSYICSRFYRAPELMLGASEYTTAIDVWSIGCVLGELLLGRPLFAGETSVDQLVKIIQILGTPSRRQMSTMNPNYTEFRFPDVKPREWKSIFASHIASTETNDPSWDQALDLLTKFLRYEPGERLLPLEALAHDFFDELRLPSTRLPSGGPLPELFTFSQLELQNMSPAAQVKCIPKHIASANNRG
The assay is classed as biochemical, Toxaplasma grondii.

For assay [3], the target named is T3, GSK-3 (Cryptosporidium parvum, UniProt A3FQN0).
T3 sequence (A3FQN0 1-433): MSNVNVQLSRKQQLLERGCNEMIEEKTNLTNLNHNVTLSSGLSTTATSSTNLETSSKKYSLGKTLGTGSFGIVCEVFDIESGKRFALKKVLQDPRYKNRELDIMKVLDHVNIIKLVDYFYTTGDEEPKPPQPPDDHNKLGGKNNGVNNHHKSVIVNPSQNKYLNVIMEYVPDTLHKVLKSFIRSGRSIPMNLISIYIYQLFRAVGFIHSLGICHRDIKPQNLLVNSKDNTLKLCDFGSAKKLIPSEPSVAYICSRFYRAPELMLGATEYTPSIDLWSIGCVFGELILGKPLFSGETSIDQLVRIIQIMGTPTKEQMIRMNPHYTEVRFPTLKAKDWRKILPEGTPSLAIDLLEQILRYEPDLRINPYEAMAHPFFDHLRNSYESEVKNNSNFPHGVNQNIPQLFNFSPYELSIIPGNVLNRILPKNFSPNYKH
Type of assay: biochemical.

Assay [4] deals with T4, GSK-3 (Trypanosoma cruzi, UniProt Q4E1X0).
T4 sequence (Q4E1X0 1-353): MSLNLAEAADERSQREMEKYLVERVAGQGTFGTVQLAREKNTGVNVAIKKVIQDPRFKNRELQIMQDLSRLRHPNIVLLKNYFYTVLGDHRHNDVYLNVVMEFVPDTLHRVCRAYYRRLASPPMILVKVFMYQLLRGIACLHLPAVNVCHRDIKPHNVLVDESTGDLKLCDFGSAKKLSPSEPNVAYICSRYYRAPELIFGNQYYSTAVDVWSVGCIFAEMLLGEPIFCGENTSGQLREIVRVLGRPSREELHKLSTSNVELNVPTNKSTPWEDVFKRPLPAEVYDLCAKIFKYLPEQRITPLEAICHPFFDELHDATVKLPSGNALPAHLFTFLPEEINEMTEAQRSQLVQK
Type of assay: biochemical. Particulars: read-out: IC50 Trypanopsoma cruzi; calculated from dose-response curves; -(100) taken as no inhibition at 100.

The target in assay [5] is T5, GSK-3 (Leishmania major, UniProt Q4QE15).
T5 construct: made in house
T5 sequence (Q4QE15 entry or part of it): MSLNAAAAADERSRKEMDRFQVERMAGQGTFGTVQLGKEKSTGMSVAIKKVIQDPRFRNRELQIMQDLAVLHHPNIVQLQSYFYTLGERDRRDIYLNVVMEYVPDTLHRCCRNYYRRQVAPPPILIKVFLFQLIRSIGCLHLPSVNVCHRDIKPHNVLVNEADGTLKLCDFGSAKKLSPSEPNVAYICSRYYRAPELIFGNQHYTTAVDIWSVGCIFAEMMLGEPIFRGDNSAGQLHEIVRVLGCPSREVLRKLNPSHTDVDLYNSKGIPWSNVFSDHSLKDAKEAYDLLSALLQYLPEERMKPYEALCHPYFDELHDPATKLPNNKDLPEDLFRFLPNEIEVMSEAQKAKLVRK
The assay is classed as biochemical, Leishmania majo. The source says: (§1) Given the strong conservation of GSK-3 across evolution and the surprising selectivity of the compounds according to the present invention towards PfGSK-3 versus mammalian GSK-3, a selection of 12 GSK-3 orthologues of various species chosen on the "tree of life" analyzed. The species belong to the Apicomplexa (P. falciparum, P. vivax, P. knowlesi and P. berghei (Gardner, M.J. et al. Genome sequence of the human malaria parasite Plasmodium falciparum. Nature 419, 498-511 (2002); Carlton, J.M. et al. Comparative genomics of the neglected human malaria parasite Plasmodium vivax. Nature 455, 799-803 (2008); Pain, A. et al. The genome of the simian and human malaria parasite Plasmodium knowlesi. Nature 455, 799-803 (2008).). Toxoplasma gondii (Qin, C.L., Tang, J. and Kim, K. Cloning and in vitro expression of TPK3, a Toxoplasma gondii homologue of shaggy/glycogen synthase kinase-3 kinases. Mol. Biochem. Parasitol. 93, 273-283 (1998)), Cryptosporidium parvum.
(§2) Following PCR amplification from cDNA libraries or direct synthesis based on databases sequences, the GSK-3 genes were inserted in appropriate expression vectors and recombinant, tagged kinases were expressed, affinity purified and assayed in the presence of up to 10-100µM of each compound of formula (I) according to the present invention and a selection of the PfGSK-3 inhibitors.

In assay [6] the target is T6, GSK-3 (Leishmania donovani, UniProt A6N857).
T6 sequence (A6N857 1-355): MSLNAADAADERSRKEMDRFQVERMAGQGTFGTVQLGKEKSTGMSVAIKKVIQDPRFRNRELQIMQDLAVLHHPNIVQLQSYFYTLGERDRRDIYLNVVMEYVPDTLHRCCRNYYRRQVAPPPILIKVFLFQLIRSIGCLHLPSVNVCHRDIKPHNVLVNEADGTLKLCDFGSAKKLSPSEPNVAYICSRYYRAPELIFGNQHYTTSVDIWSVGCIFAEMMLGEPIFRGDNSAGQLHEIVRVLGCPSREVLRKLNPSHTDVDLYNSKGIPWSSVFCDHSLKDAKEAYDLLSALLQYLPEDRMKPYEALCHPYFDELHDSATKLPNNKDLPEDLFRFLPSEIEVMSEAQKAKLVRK
The assay is classed as biochemical. The conditions noted are these: read-out: IC50 Leishmania donovani; calculated from dose-response curves.

The target in assay [7] is T7, GSK-3 (Dictyostelium discoideum, UniProt P51136).
T7 construct: made in house
T7 sequence (P51136 whole entry): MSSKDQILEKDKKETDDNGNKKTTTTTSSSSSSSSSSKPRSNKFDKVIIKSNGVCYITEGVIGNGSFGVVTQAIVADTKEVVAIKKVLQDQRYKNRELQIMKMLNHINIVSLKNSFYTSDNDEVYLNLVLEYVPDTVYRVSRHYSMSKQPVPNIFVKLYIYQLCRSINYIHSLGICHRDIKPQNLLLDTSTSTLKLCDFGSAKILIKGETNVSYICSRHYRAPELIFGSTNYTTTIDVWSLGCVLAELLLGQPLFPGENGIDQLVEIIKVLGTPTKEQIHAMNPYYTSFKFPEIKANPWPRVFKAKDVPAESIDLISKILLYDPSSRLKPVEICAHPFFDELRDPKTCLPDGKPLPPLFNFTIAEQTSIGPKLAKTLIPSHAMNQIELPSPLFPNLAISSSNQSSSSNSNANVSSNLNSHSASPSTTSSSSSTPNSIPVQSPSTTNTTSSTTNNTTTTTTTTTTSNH
The assay is classed as biochemical.
Source text: as §1, §2

In assay [8] the target is T8, GSK-3 (Plasmodium falciparum, UniProt O77344).
T8 construct: made in house
T8 sequence (O77344 entry or part of it): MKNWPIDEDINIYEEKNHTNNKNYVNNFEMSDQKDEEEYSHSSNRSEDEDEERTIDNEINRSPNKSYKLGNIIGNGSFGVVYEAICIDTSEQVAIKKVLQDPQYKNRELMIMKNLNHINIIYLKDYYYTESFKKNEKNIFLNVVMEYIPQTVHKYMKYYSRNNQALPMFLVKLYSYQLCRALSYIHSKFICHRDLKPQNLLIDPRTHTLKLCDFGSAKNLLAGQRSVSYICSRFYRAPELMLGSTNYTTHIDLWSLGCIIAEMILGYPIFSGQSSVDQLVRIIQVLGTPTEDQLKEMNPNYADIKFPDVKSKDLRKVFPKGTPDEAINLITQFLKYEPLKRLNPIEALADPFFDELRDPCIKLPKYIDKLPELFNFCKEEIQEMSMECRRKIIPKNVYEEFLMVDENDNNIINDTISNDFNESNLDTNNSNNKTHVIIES
The assay is classed as biochemical.
Source text: as §1, §2

Assay [9] deals with T9, GSK-3 α (Homo sapiens, UniProt P49840).
T9 construct: made in house
T9 sequence (P49840 whole entry): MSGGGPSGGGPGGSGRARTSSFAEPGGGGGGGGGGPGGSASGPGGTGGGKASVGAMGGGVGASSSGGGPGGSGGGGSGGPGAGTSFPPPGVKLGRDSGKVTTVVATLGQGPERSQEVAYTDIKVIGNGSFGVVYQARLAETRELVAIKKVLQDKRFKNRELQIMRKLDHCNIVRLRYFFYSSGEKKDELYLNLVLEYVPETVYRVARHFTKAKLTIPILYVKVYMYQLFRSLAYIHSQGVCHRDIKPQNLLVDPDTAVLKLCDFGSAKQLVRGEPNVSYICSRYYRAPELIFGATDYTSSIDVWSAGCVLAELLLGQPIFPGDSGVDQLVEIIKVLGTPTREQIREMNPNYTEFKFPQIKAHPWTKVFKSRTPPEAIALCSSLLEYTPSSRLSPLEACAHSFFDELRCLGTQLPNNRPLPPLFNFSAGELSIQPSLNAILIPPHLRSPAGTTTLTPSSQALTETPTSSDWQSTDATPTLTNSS
The assay is classed as biochemical. The conditions noted are these: calculated from dose-response curves; -(100) taken as no inhibition at 100.
Source text: as §1, §2

The target in assay [10] is GSK-3 α/β. Type of assay: biochemical. Particulars: calculated from dose-response curves; -(100) taken as no inhibition at 100; read-out: IC50 Sus scrofa (GSK-3 α/β).
Source text: as §1, §2

Consider 1 compound from patent EP2308883A1, “New derivatives of thieno[2,3-b]pyridine and 5,6,7,8 tetrahydrothieno[2,3 b]quinoline in particular useful in the treatment of malaria” (priority 2009, dated 2011).

Take `N#Cc1c(N)nc2sc(C(=O)c3ccc(Cl)cc3)c(N)c2c1-c1ccccc1I` [Compound 1, 3,6-diamino-2-(4-chlorobenzoyl)-4-(2-iodophenyl)thieno[2,3-b]pyridine-5-carbonitrile]: the IC50 is 15.5 µM in assay [1]; greater than 100 µM in [2]; greater than 100 µM in [3]; greater than 100 µM in assay [4]; greater than 100 µM in assay [5]; 80 µM in assay [6]. The IC50 is greater than 100 µM in assay [7], 1.9 µM in [8], greater than 100 µM in assay [9] and greater than 100 µM in assay [10].
